What was measured:
[1] = cited from earlier work
[2] = 30 minutes after administration; cited from earlier work
[3] = test system: B7-H1 (PD-L1); test: Inhibition of interferon-γ-dependent expression of B7-H1 (PD-L1) on cancer cells; type: cell-based
[4] = test system: B7-H1; settings: known effect, background; cited from earlier work

| SMILES | solubility in water [1] | lactone form hydrolyzed to an open ring [2] | inhibitory effect on interferon-γ-dependent expression of B7-H1 (PD-L1) ([3]; MDA-MB-231 triple negative breast cancer cell, FIG. 9) | inhibitory effect on interferon-γ-dependent expression of B7-H1 (PD-L1) ([3]; MDA-MB-468 triple negative breast cancer cell, FIG. 10) | inhibitory effect on interferon-γ-dependent expression of B7-H1 (PD-L1) ([3]; U-87 MG glioma cells, FIG. 8) | inhibitory effect on interferon-γ-dependent expression of B7-H1 (PD-L1) ([3]; U-87 stem-like cells, FIG. 5) | inhibitory effect on interferon-γ-dependent expression of B7-H1 (PD-L1) ([3]; U-251 glioma cell, FIG. 7) | inhibitory effect on interferon-γ-dependent expression of B7-H1 (PD-L1) ([3]; cancer stem cell (CSC-5), FIG. 6) | expression of B7-H1 by cancer cells [4] |
| --- | --- | --- | --- | --- | --- | --- | --- | --- | --- |
| CC[C@@]1(O)C(=O)OCc2c1cc1n(c2=O)Cc2cc3ccccc3nc2-1 [camptothecin, (S)-4-ethyl-4-hydroxy-1H-pyrano-[3′,4′:6,7]indolizino[1,2-b]quinoline-3, 14(4H,12H)-dione] | essentially insoluble | 50% |  |  |  |  |  |  |  |
| CC(C)[C@]12O[C@H]1[C@@H]1O[C@]13[C@]1(O[C@H]1C[C@H]1C4=C(CC[C@@]13C)C(=O)OC4)[C@@H]2O [triptolide, Triptolide] |  |  | inhibitory effect | inhibitory effect | Inhibitory effect | inhibitory effect | inhibitory effect | inhibitory effect | inhibit |

Reference: US20160115192A1, “ANTIOXIDANT, ANTI-INFLAMMATORY AND ANTICANCER DERIVATIVES OF TRIPTOLIDE AND NANOSPHERES THEREOF” (CEDARS-SINAI MEDICAL CENTER, priority 2013, published 2016)
